In one test the test system is SK-BR-3 cells. Put plainly: Growth inhibitory activity against HER2 expressing cell line. Format: cell-based. The settings on record: Homo sapiens, SK-BR-3, 72 h; 3 days, CellTiter-Glo 2.0. The protocol: SK-BR-3 cells as a HER2 overexpressing human breast cancer cell line were suspended in a McCoy's 5a medium (manufactured by Life Technologies) supplemented with 10% fetal bovine serum. The cell suspension was seeded in each well of a 384-well flat-bottom microplate, and was then cultured in a 5% carbon dioxide gas-containing culture vessel at 37° C. for 1 day. Thereafter, the compound (I) obtained according to the method in Synthesis Example 1 was dissolved in DMSO, and the compound was diluted to 500 times the final concentration in DMSO. The compound in the DMSO solution was diluted with DMSO solution or the medium used in the suspension of the cells, and the obtained solution was then added to each well of the culture plate so that the final concentration of DMSO was 0.2%. The obtained mixture was further cultured in the 5% carbon dioxide gas-containing culture vessel at 37° C. for 3 days. After completion of the culture for 3 days in the presence of the compound, the cells were counted using CellTiter-Glo 2.0 (manufactured by Promega), and the growth inhibition percentage was then calculated according to the following equation. The concentration of the compound, in which the growth of the cells can be inhibited by 50%, was defined as IC50 (nM). […]

Test [1] has as its target T1, recombinant human HER2 exon 20 insertion mutant (A775_G776insYVMA) protein (Homo sapiens, UniProt P04626, INS775YVMA).
T1 construct: purchased SignalChem
Put plainly: Inhibitory action (in vitro) against HER2 exon 20 insertion mutant phosphorylation activity. The settings on record: pre-incubated 30 minutes, ATP 200 μM, 220 minutes; read-out: HER2ex20insYVMA inhibitory activity IC50 value. Type of test: biochemical. From the text: In order to determine conditions for a method of measuring the in vitro inhibitory activity of a compound against HER2 exon 20 insertion mutant phosphorylation activity, as in the case of HER2, ProfilerPro Peptide 22 was used as a substrate. A purified recombinant human HER2 exon 20 insertion mutant (A775_G776insYVMA) protein was purchased from SignalChem. Upon the measurement of the inhibitory activity of the compound, first, the compound (I) obtained according to the method in Synthesis Example 1 was diluted stepwise with dimethyl sulfoxide (DMSO). Subsequently, the HER2 exon 20 insertion mutant protein and the compound (I) in DMSO solution (final concentration of DMSO: 5%) were added into a buffer for the kinase reaction (13.5 mM Tris (pH 7.5), 2 mM dithiothreitol, and 0.009% Tween 20), and the obtained mixture was then pre-incubated at 25° C. for 30 minutes. […] Finally, using LabChip (registered trademark) EZ Reader II (PerkinElmer), an unphosphorylated substrate peptide(S) and a phosphorylated peptide (P) were separated and detected according to microchannel capillary electrophoresis. […]

Another test concerns NCI-N87 cells. Put plainly: Growth inhibitory activity against HER2 expressing cell line (NCI-N87). Format: cell-based. The conditions noted are these: Homo sapiens, NCI-N87, 72 h; 3 days, CellTiter-Glo 2.0. The protocol: NCI-N87 cells as a HER2 overexpressing human stomach cancer cell line (American Type Culture Collection, Cat No. ATCC (registered trademark) CRL-5822) were suspended in an RPMI1640 medium (Wako Pure Chemical Industries, Ltd.) supplemented with 10% fetal bovine serum. Subsequently, the cell suspension was seeded in each well of a 96-well flat-bottom microplate, and was then cultured in a 5% carbon dioxide gas-containing culture vessel at 37° C. for 1 day. Thereafter, the compound (I) obtained according to the method in Synthesis Example 1 was dissolved in DMSO, and the compound was diluted to 1000 times the final concentration in DMSO. The compound (I) in the DMSO solution was diluted with the medium used in the suspension of the cells, and the obtained solution was then added to each well of the culture plate, so that the final concentration of DMSO became 0.1%. Regarding a control well, DMSO was diluted with the medium used in the suspension of the cells, and the obtained solution was then added to each well of the culture plate, so that the final concentration of DMSO became 0.1%. […] After completion of the culture for 3 days in the presence of the compound, the cells were counted using CellTiter-Glo 2.0 (manufactured by Promega) in accordance with the protocols recommended by Promega. The growth inhibition percentage was calculated according to the following equation. […]

pIC50: −log10 of the molar value. Where only a bound is given, the exact number is not on record here.

We go through one compound from patent US12492208B2, “Crystal of pyrimidine compound” (TAIHO PHARMACEUTICAL CO., LTD., priority 2020, dated 2025).

T1 sequence (P04626 with tags, fused parts or gaps INS775YVMA limits assumed): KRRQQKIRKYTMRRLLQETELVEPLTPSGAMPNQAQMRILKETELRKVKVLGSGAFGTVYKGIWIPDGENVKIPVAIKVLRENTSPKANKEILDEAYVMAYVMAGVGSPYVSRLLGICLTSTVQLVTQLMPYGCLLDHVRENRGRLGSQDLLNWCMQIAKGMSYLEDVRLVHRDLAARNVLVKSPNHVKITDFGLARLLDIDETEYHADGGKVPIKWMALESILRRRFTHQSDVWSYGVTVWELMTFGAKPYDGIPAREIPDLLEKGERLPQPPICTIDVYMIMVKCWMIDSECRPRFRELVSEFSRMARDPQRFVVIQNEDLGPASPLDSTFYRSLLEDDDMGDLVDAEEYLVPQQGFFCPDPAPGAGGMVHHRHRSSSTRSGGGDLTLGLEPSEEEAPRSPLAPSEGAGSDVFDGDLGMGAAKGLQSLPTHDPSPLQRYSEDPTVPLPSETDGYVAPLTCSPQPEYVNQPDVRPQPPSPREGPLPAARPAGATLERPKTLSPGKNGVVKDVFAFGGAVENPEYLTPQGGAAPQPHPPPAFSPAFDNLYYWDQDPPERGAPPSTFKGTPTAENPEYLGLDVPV

Turning to `C=CC(=O)N1C[C@H](n2c(C#CC3CC3)c(C(=O)N[C@H](C)c3ccccc3)c3c(N)ncnc32)C[C@@H]1C` [compound (I), 7-((3R,5S)-1-acryloyl-5-methylpyrrolidin-3-yl)-4-amino-6-(cyclopropylethynyl)-N—((R)-1-phenylethyl)-7H-pyrrolo[2,3-d]pyrimidine-5-carboxamide], the pIC50 – broadly, −log10 of the IC50, conventionally taken in molar units – was 8.18 with SK-BR-3 cells, over 9.52 in test [1] and 8.00 in the test on NCI-N87 cells.
